# In ChEMBL document CHEMBL2331345, “Syntheses of lipophilic chalcones and their conformationally restricted analogues as antitubercular agents” (Bioorg Med Chem Lett, 2013):
# The source made the active and inactive calls. The rule behind the calls is not given here.
# Legend:
# [1] = system: Mycobacterium tuberculosis; test: Antitubercular activity against Mycobacterium tuberculosis H37Rv ATCC 27294 assessed as growth inhibition at 250 ug/ml measured every 24 hrs by BACTEC radiosusceptibility assay; assay type: functional, organism-based
# [2] = system: Mycobacterium tuberculosis; test: Antitubercular activity against Mycobacterium tuberculosis assessed as growth inhibition; assay type: functional
# [3] = Selectivity ratio of IC50 for human HEK293 cells to MIC for Mycobacterium tuberculosis H37Rv ATCC 27294; assay type: functional
# HEK293 = test: Cytotoxicity against human HEK293 cells assessed as inhibition of cell viability after 24 hrs by MTT assay; assay type: cell-based; details: HEK293, 24 h
# [4] = system: Mycobacterium tuberculosis; test: Antitubercular activity against Mycobacterium tuberculosis H37Rv ATCC 27294 assessed as growth inhibition measured every 24 hrs by BACTEC radiosusceptibility assay; assay type: functional; details: H37Rv ATCC 27294, 24 h
# Mycobacterium sp. = test: Antibacterial activity against Mycobacterium sp. assessed as growth inhibition; assay type: functional
structure (smiles),measurement,setting,value
COc1ccc(C(=O)/C=C/c2ccc(O)cc2)c(O)c1,growth inhibition (GI),[1],inactive
CC(C)=CCOc1c2ccoc2cc2oc(=O)ccc12 [ISOIMPERATORIN],MIC,[2],64 µg/mL
COc1ccc2c(/C=C/c3ccc(OCCN4CCCCC4)cc3)c(-c3ccccc3)c(=O)oc2c1,Ratio,[3],2.85
same,IC50,HEK293,5 µg/mL
same,MIC,[4],3.5 µg/mL
CO[C@H]1/C=C/O[C@@]2(C)Oc3c(C)c(O)c4c(O)c(c(/C=N/N5CCN(C)CC5)c(O)c4c3C2=O)NC(=O)/C(C)=C\C=C\[C@H](C)[C@H](O)[C@@H](C)[C@@H](O)[C@@H](C)[C@H](OC(C)=O)[C@@H]1C [RIFAMPIN],MIC,[4],2 µg/mL
COc1cc(CCc2ccc3c(c2)OCO3)oc(=O)c1,MIC,[2],32 µg/mL
CCCCNC(=O)COc1ccc(/C=C(/C(=O)c2ccc(OC)cc2)c2ccccc2)cc1,growth inhibition (GI),[1],inactive
COc1ccc2ccc(=O)oc2c1CC=C(C)C [OSTHOLE],MIC,[2],32 µg/mL
COc1ccc2c(/C=C/c3ccc(OCCN4CCCC4)cc3)c(-c3ccccc3)c(=O)oc2c1,growth inhibition (GI),[1],inactive
CCCCN(C)C(=O)COc1ccc(/C=C(/C(=O)c2ccc(OC)cc2)c2ccccc2)cc1,growth inhibition (GI),[1],inactive
COc1ccc(/C=C/C(=O)c2ccc(O)cc2O)cc1,growth inhibition (GI),[1],inactive
CC(C)=CCC/C(C)=C/CC/C(C)=C/Cc1c(O)c2ccccc2oc1=O,MIC,Mycobacterium sp.,2 µg/mL
COc1ccc(/C=C/c2c(-c3ccccc3)c(=O)oc3cc(O)ccc23)cc1,IC50,HEK293,> 250 µg/mL
same,MIC,[4],125 µg/mL
COc1ccc(C(=O)/C(=C/c2ccc(O)cc2)c2ccccc2)cc1,IC50,HEK293,50 µg/mL
same,MIC,[4],60 µg/mL
COc1cc2oc(=O)ccc2cc1CC=C(C)C [SUBEROSIN],MIC,[2],16 µg/mL
COc1ccc2c(/C=C/c3ccc(OC(C)CN(C)C)cc3)c(-c3ccccc3)c(=O)oc2c1 (stereo not drawn),IC50,HEK293,5 µg/mL
same,MIC,[4],7.5 µg/mL
C=CC(C)(C)c1cc(/C=C/C(=O)c2ccc(O)cc2)c(OC)cc1O [LICOAGROCHACONE A],MIC,[2],7.1 µg/mL
COc1ccc(C(=O)/C(=C/c2ccc(OCC(=O)O)cc2)c2ccccc2)cc1,MIC,[4],250 µg/mL
COc1cc(/C=C/c2ccccc2)oc(=O)c1 [DESMETHOXYYANGONIN],MIC,[2],4 µg/mL
COc1ccc2c(/C=C/c3ccc(OC(C)=O)cc3)c(-c3ccccc3)c(=O)oc2c1,growth inhibition (GI),[1],inactive
CN[C@@H]1[C@H](O[C@H]2[C@H](O[C@H]3[C@H](O)[C@@H](O)[C@H](N=C(N)N)[C@@H](O)[C@@H]3N=C(N)N)O[C@@H](C)[C@]2(O)C=O)O[C@@H](CO)[C@H](O)[C@H]1O [STREPTOMYCIN],MIC,[4],2 µg/mL
COc1ccc2c(/C=C/c3ccc(O)cc3)c(-c3ccccc3)c(=O)oc2c1,Ratio,[3],16
same,IC50,HEK293,> 250 µg/mL
same,MIC,[4],30 µg/mL
